Results as given in article PMC6321291, “Synthesis, Biological Evaluation and Docking Studies of Benzoxazoles Derived from Thymoquinone” (Molecules, 2018).

Assays:
[1] = tested on: SW620 (colorectal adenocarcinoma, metastatic); assay: MTT assay, SW620; type: cell-based; conditions: Homo sapiens, SW-620, 72 h
Protocol: (§1) The tested compounds were dissolved in DMSO in five, 10-fold dilutions (0.01–100 µM). The cell lines HeLa (cervical carcinoma), SW620 (colorectal adenocarcinoma, metastatic), HepG2 (hepatocellular carcinoma), CFPAC-1 (ductal pancreatic adenocarcinoma), and WI38 (human lung fibroblast cell line), were cultured as monolayers and maintained in Dulbecco’s modified Eagle medium (DMEM) supplemented with 10% fetal bovine serum (FBS), 2 mM L-glutamine, 100 U mL^−1 penicillin and 100 μg mL^−1 streptomycin in a humidified atmosphere with 5% CO2 at 37 °C.
(§2) The MTT assay was used for evaluation of effects of tested compounds on viability of carcinoma and control cell lines. About 5000 cells per well were seeded onto a series of standard 96-well plates on day 0. Test agents were then added and incubated for further 72 h. Working dilutions of tested compounds were freshly prepared in the growth medium, on the day of testing. The solvent (DMSO) was also tested for eventual inhibitory activity by adjusting its concentration to be the same as in the working concentrations (DMSO concentration never exceeded 0.1%). After 72 h of incubation, the cell growth rate was evaluated by performing the MTT assay: experimentally determined absorbance values were transformed into a cell percentage growth (PG) using the formulas proposed by NIH and described previously. This method directly relies on control cells number at the day of assay because it compares the growth of treated cells with the growth of untreated cells in control wells on the same plate, the results are therefore a percentile difference from the calculated expected value.
(§3) If, however, all of the tested concentrations produce PGs exceeding the respective reference level of effect (e.g., PG value of 50) for a given cell line, the highest tested concentration is assigned as the default value (in the screening data report that default value is preceded by a “>” sign). Each test point was performed in quadruplicate in three individual experiments. The results were statistically analyzed (Analysis of variance (ANOVA), Tukey post-hoc test at p < 0.05). Finally, the effects of the tested substances were evaluated by plotting the mean percentage growth for each cell type in comparison to control on dose response graphs.

[2] = tested on: CFPAC-1 (ductal pancreatic adenocarcinoma); assay: MTT assay, CFPAC-1; type: cell-based; conditions: Homo sapiens, 72 h
Protocol: as §1, §2, §3

[3] = tested on: HepG2 (hepatocellular carcinoma); assay: MTT assay, HepG2; type: cell-based; conditions: Homo sapiens, 72 h
Protocol: as §1, §2, §3

[4] = tested on: HeLa (cervical carcinoma); assay: MTT assay, HeLa; type: cell-based; conditions: Homo sapiens, 72 h
Protocol: as §1, §2, §3

[5] = MTT assay, WI38 healthy control; type: cell-based; conditions: WI38 human lung fibroblast cells, WI38 healthy control human fibroblast cell line
Protocol: as §1, §2, §3

phospho (Ser 473) Akt [6] = assay: Western blot, pAkt in HeLa cells; type: cell-based, human; conditions: IC50 concentration, 48 h treatment
Protocol: (§4) Protein lysates were lysed in the buffer 50 mM Tris HCl (pH 8), 150 mM NaCl, 1% NP-40, 0.5% sodium deoxycholate, 0.1% SDS and protease and phosphatase inhibitor cocktail (Roche, Basel, Switzerland). A total of 50 μg of proteins were resolved on 10% SDS polyacrylamide gels by use of Mini-protean cell (Bio-Rad, Hercules, CA, USA). Membranes were incubated with primary antibodies against phospho (Tyr 1135) -IGF1 Receptor β (1:1000, rabbit mAb, Cell Signalling Technology, Danvers, MA, USA), phospho (Ser 473) Akt (1:1000, rabbit mAb, Cell Signalling Technology) and α tubulin (1:1000, mouse mAb, Sigma Aldrich) at 4 °C overnight. Secondary antibody linked to anti-mouse was used at 1:1000 (Dako, Santa Clara, CA, USA) and to anti-rabbit at 1:1000 (Dako). Signals were visualized by Western Lightening Chemiluminescence Reagent Plus Kit (Perkin Elmer, USA) on the ImageQuant LAS500 (GE Healthcare, Chicago, IL, USA). Signal intensities of particular bands were normalized with the intensity of the loading control α tubulin and compared in Quantity One software (Bio-Rad). The values are expressed as average value of three independent experiments ± standard error of the mean. Statistical analysis was performed in Microsoft Excel (Microsoft Corporation, Redmond, WA, USA) by using the ANOVA (p < 0.05).

phospho (Ser 473) Akt [7] = assay: Western blot, pAkt in HepG2 cells; type: cell-based, human; conditions: IC50 concentration
Protocol: as §4

[8] = tested on: phospho (Tyr 1135) -IGF1 Receptor β; assay: Western blot, IGF1 Receptor β activated form in HeLa cells; type: cell-based, human; conditions: IC50 concentration, 24 and 48 h treatments
Protocol: as §4

[9] = tested on: phospho (Tyr 1135) -IGF1 Receptor β; assay: Western blot, IGF1 Receptor β activated form in HepG2 cells; type: cell-based, human; conditions: IC50 concentration
Protocol: as §4

Cc1c(O)cc(C(C)C)c2oc(-c3ccc(F)cc3)nc12 [1f, 2-(4-Fluorophenyl)-4-methyl-7-isopropyl-1,3-benzoxazole-5-ol]
IC50 [1]: 5.82 µM
IC50 [2]: 33.8 µM
IC50 [3]: 9.36 µM
IC50 [4]: 4.13 µM
IC50 at 72 h [5]: 5.54 µM
pAkt levels (western blot) (phospho (Ser 473) Akt [6]): significantly decreased pAkt levels
inhibition of Akt phosphorylation (western blot) (phospho (Ser 473) Akt [7]; 24 h treatment): significant effect
pAkt signal (western blot) (phospho (Ser 473) Akt [7]; 48 h treatment): absence of pAkt signal
IGF1 Receptor β activated form expression (western blot) [8]: not detectable
IGF1 Receptor β activated form expression (western blot) ([9]; 24 h treatment): significantly decreased expression
IGF1 Receptor β activated form expression (western blot) ([9]; 48 h treatment): lack of signal
